Experimental data taken from the supplement of paper PMC10307832.

Legend:
Experiment in all cases: relative viability (nuclei count vs DMSO), 5 days (fraction); higher = more cells survive
MLN4924 + Alpelisib = compound: NS(=O)(=O)OC[C@@H]1C[C@@H](n2ccc3c(N[C@H]4CCc5ccccc54)ncnc32)C[C@@H]1O [MLN4924] + Cc1nc(NC(=O)N2CCC[C@H]2C(N)=O)sc1-c1ccnc(C(C)(C)C(F)(F)F)c1 [Alpelisib] (partner 2 µM)
Outline: (§1)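 A single step with final 0.05% Triton X-100, 1% formaldehyde and 1 ug/ml Hoechst fixed the cells and stained nuclei 5 days after treatment. Lung cancer cell lines in 1536-well plates had been treated by pin tool the day after seeding with one drug alone or a fixed anchor-drug dose plus five library-drug doses (not always all listed) in √10 steps, and nuclei were counted on 4× images. Relative viability is the ratio of nuclei in treated wells to nuclei in vehicle wells, taken as the median of duplicate plates.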

MLN4924 + OSI-027 = compound: NS(=O)(=O)OC[C@@H]1C[C@@H](n2ccc3c(N[C@H]4CCc5ccccc54)ncnc32)C[C@@H]1O [MLN4924] + COc1cccc2cc(-c3nc([C@H]4CC[C@H](C(=O)O)CC4)n4ncnc(N)c34)[nH]c12 [OSI-027] (partner 0.5 µM)
Outline: as §1

MLN4924 + Crizotinib = compound: NS(=O)(=O)OC[C@@H]1C[C@@H](n2ccc3c(N[C@H]4CCc5ccccc54)ncnc32)C[C@@H]1O [MLN4924] + C[C@@H](Oc1cc(-c2cnn(C3CCNCC3)c2)cnc1N)c1c(Cl)ccc(F)c1Cl [Crizotinib] (partner 1 µM)
Outline: as §1

MLN4924 + Foretinib = compound: NS(=O)(=O)OC[C@@H]1C[C@@H](n2ccc3c(N[C@H]4CCc5ccccc54)ncnc32)C[C@@H]1O [MLN4924] + COc1cc2c(Oc3ccc(NC(=O)C4(C(=O)Nc5ccc(F)cc5)CC4)cc3F)ccnc2cc1OCCCN1CCOCC1 [Foretinib] (partner 0.25 µM)
Outline: as §1

| Cell Line | relative viability (MLN4924 + Alpelisib; first compound 0.04 µM) | relative viability (MLN4924 + Alpelisib; first compound 0.1265 µM) | relative viability (MLN4924 + Alpelisib; first compound 0.4 µM) | relative viability (MLN4924 + Alpelisib; first compound 1.265 µM) | relative viability (MLN4924 + Alpelisib; first compound 4 µM) | relative viability (MLN4924 + OSI-027; first compound 0.04 µM) | relative viability (MLN4924 + OSI-027; first compound 0.1265 µM) | relative viability (MLN4924 + OSI-027; first compound 0.4 µM) | relative viability (MLN4924 + OSI-027; first compound 1.265 µM) | relative viability (MLN4924 + OSI-027; first compound 4 µM) | relative viability (MLN4924 + Crizotinib; first compound 0.04 µM) | relative viability (MLN4924 + Crizotinib; first compound 0.1265 µM) | relative viability (MLN4924 + Crizotinib; first compound 0.4 µM) | relative viability (MLN4924 + Crizotinib; first compound 1.265 µM) | relative viability (MLN4924 + Crizotinib; first compound 4 µM) | relative viability (MLN4924 + Foretinib; first compound 0.04 µM) | relative viability (MLN4924 + Foretinib; first compound 0.1265 µM) | relative viability (MLN4924 + Foretinib; first compound 0.4 µM) | relative viability (MLN4924 + Foretinib; first compound 1.265 µM) | relative viability (MLN4924 + Foretinib; first compound 4 µM) |
| --- | --- | --- | --- | --- | --- | --- | --- | --- | --- | --- | --- | --- | --- | --- | --- | --- | --- | --- | --- | --- |
| NCI-H647 | 1.04 | 0.653 | 0.18 | 0.0485 | 0.0516 | 0.598 | 0.472 | 0.475 | 0.0477 | 0.0384 | 0.925 | 0.665 | 0.197 | 0.0313 | 0.0474 | 0.818 | 0.848 | 0.188 | 0.0561 | 0.0661 |
| NCI-H650 | 1.06 | 0.513 | 0.339 | 0.204 | 0.232 | 0.344 | 0.415 | 0.235 | 0.162 | 0.187 | 0.676 | 0.402 | 0.289 | 0.135 | 0.179 | 0.863 | 0.499 | 0.341 | 0.197 | 0.191 |
| NCI-H661 | 0.664 | 0.887 | 0.502 | 0.231 | 0.351 | 0.751 | 0.876 | 0.689 | 0.319 | 0.349 | 0.735 | 0.721 | 0.602 | 0.462 | 0.396 | 0.902 | 0.776 | 0.67 | 0.393 | 0.399 |
| NCI-H727 | 0.474 | 0.292 | 0.245 | 0.194 | 0.213 | 0.521 | 0.47 | 0.559 | 0.389 | 0.441 | 0.672 | 0.274 | 0.266 | 0.274 | 0.222 | 0.863 | 0.737 | 0.515 | 0.285 | 0.335 |
| NCI-H838 | 0.795 | 0.658 | 0.261 | 0.168 | 0.148 | 0.364 | 0.241 | 0.224 | 0.154 | 0.166 | 0.635 | 0.535 | 0.235 | 0.154 | 0.139 | 0.684 | 0.503 | 0.22 | 0.174 | 0.16 |
| NCI-H1355 | 0.831 | 0.865 | 0.776 | 0.35 | 0.152 | 0.456 | 0.388 | 0.277 | 0.221 | 0.231 | 1.04 | 1.03 | 0.963 | 0.484 | 0.208 | 0.943 | 0.91 | 0.889 | 0.472 | 0.201 |
| NCI-H1437 | 0.905 | 0.977 | 0.755 | 0.422 | 0.101 | 0.845 | 0.914 | 0.828 | 0.305 | 0.174 | 0.854 | 0.77 | 0.626 | 0.336 | 0.164 | 0.835 | 1.15 | 0.739 | 0.465 | 0.22 |
| NCI-H1563 | 1.36 | 1.31 | 0.898 | 0.564 | 0.566 | 0.981 | 1.04 | 0.74 | 0.526 | 0.524 | 1.1 | 1.14 | 1.01 | 0.579 | 0.552 | 1.16 | 1.21 | 0.744 | 0.535 | 0.55 |
